According to patent US20250387359A1, “COMPOUNDS AND METHODS FOR THE TREATMENT OF PARASITIC INFECTIONS” (THE BOARD OF TRUSTEES OF THE UNIVERSITY OF ILLINOIS, priority 2019, published 2025):
Where two headings read alike, the source gives them in different places.

Assays:
HCT-8 cells = test: Compound cytotoxicity assay (WST-1) in HCT-8 cells; assay type: cell-based, human
Protocol: Compound cytotoxicity assay. […] A colorimetric assay using the cell proliferation reagent WST-1 (Roche, USA) for the quantification of cell viability was performed. […] When the cells were confluent, the old medium was replaced with fresh medium with or without varying concentrations of chemical compound. After 24 h of culture, 10 μl of the cell proliferation reagent WST-1, (for quantification of cell viability) was added to each well, mixed and the plates incubated for 1 h at 37 C with 5% CO2 in the dark. […] Molecular Devices, USA).

[1] = biological target: recombinant CpLDH protein (Cryptosporidium parvum, UniProt Q9GT92, F198L/K295E/R251K); test: biochemical; assay type: biochemical; settings: 20 μM compound; 10 mM pyruvate, 1 mM NADH
Protocol: Biochemical assays. The coding sequence of CpLDH was cloned from cDNA prepared from the AUCP-1 isolate of C. parvum, and the His-tagged CpLDH recombinant protein expressed in Escherichia coli, and purified in native form essentially as previously described (Int. J. Parasitol. 2017; 47(13), 867-874). Briefly, cDNA was prepared from total RNA extracted from the AUCP-1 isolate of C. parvum, and the coding sequencing of CpLDH (Genebank accession number AF274310.1) was PCR-amplified from the cDNA using a primer pair with a XhoI restriction site and a BamHI site. The PCR amplicon was cloned at the XhoI/BamHI site of the pET15b expression vector in-frame with the hexahistidine (His-tag) at the N-terminal and sequenced to confirm identity. The recombinant expression vector was transformed into protein expression E. coli BL21-CodonPlus-DE3-RIL (Stratagene). Transformed E. coli was cultured at 37° C. in Luria broth medium (supplemented with 100 μg/ml ampicillin and 34 μg/ml chloramphenicol) to an A600 of 0.8 followed by addition of 1 mM isopropyl-β-d-thiogalactopyranoside to induce protein expression. The expression E. coli was harvested and lysed under native conditions by sonicating in lysis buffer (50 mM NaH2PO4, 300 mM NaCl, 10 mM Imidazole, pH 8.0) containing a 1× EDTA-free protease inhibitor cocktail, 600 units benzonase and 30 kU lysozyme (EMD Millipore). The lysate was clarified by centrifugation and the His-tagged recombinant protein purified under native conditions by nickel-affinity chromatography according to the manufacturer's instructions (Novagen). The wash buffer used contained 50 mM NaH2PO4, 300 mM NaCl and 20 mM Imidazole, pH 8.0, while the elution buffer was composed of 50 mM NaH2PO4, 300 mM NaCl, 250 mM Imidazole, pH 8.0. The eluate was dialyzed using a buffer containing 5 mM Hepes-KOH (pH 7.8) and 0.5 mM DTT. The purity of the recombinant protein was determined by SDS/PAGE, and the concentration measured using a Qubit 3.0 fluorometer (Life technologies). […] On the other hand, the catalytic activity of CpLDH recombinant protein for the oxidation of lactate to pyruvate was determined by measuring the change in optical density of a 100 μl reaction mixture containing 100 mM lactate, 1 mM NAD^+, 100 mM Tris, pH 9.2, with varying concentrations of CpLDH recombinant protein at 25° C. […] In all assays, reaction mixtures without recombinant CpLDH protein were included as negative controls. All assays were performed in triplicate and repeated at least thrice. The change in optical density was measured every 15 seconds for a total of 2 minutes using a Spectra Max 384 Plus plate reader (Molecular Devices) at a wavelength of 340 nm.
Screening compounds for inhibitory activity against CpLDH. The chemical compounds were obtained from the National Cancer Institute/Developmental Therapeutics Program Open Chemical Repository. They consisted of a diverse set of compounds (n=27) reported previously (Int J Parasitol Drugs Drug Resist. 2016; 6(1), 44-53), and a Mechanistic Set IV compounds (n=800). The compounds were reconstituted in dimethyl sulfoxide (DMSO) as stock solutions. Just before use, aliquots of the stock solutions were diluted in sterile distilled water to generate working solutions, such that the final amount of DMSO added to the reaction mixtures was less than 1% (V/V). The compounds were tested for their inhibitory effect against the enzymatic activity of recombinant His-tagged CpLDH for catalyzing the reduction of pyruvate to lactate. […] Control reactions without recombinant CpLDH protein were included. Reactions were performed in triplicate and repeated at least thrice. The change in optical density was measured every 15 seconds for a total of 2 minutes using a Spectra Max 384 Plus plate reader (Molecular Devices) at a wavelength of 340 nm.

[2] = HCT-8 cells, 24 h, WST-1, read-out: CYTOTOXICITY IC50

Sequence of recombinant CpLDH protein (Q9GT92 whole entry F198L/K295E/R251K): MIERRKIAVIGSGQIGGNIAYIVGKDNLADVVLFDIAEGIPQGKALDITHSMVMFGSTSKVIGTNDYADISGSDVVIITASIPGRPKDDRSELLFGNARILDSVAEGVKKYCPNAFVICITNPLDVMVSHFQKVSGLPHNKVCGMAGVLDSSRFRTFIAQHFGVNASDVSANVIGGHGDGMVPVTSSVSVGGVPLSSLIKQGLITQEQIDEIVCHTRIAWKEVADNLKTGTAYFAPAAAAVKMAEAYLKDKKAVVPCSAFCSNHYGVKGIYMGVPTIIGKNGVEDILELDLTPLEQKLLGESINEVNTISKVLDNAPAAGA

SMILES: Cc1cc(N(CCCl)CCCl)ccc1/C=N/NC(=O)Cc1cc(=O)oc2cc(O)ccc12 [NSC79688]
- IC50 (HCT-8 cells; [2]): 145 µM
- effect on catalytic activity of recombinant CpLDH [1]: significant (P<0.05) inhibitory effect

SMILES: O=Cc1cc([N+](=O)[O-])no1 [NSC626433]
- IC50 (HCT-8 cells): 265 µM
- effect on catalytic activity of recombinant CpLDH [1]: significant (P<0.05) inhibitory effect

SMILES: CCOC(=O)Cc1c(C)c2cc(C(=O)c3ccccc3)c(O)cc2oc1=O [NSC115538]
- IC50 (HCT-8 cells): 158 µM

SMILES: COC(=O)C1=C(C(=O)OC)SC2(S1)C(C(=O)OC)=C(C(=O)OC)Sc1c2ssc1=O [NSC686349]
- IC50 (HCT-8 cells): 283 µM
- effect on catalytic activity of recombinant CpLDH [1]: significant (P<0.05) inhibitory effect

SMILES: O=[N+]([O-])c1ccc2c(N=Nc3c(O)ccc4ccccc34)c(O)cc(S(=O)(=O)[O-])c2c1.[Na+] [NSC73413]
- IC50 (HCT-8 cells): 220 µM
- effect on catalytic activity of recombinant CpLDH [1]: significant (P<0.05) inhibitory effect

SMILES: O=[N+]([O-])c1cccc2c(N=Nc3ccc4ccccc4c3O)c(O)cc(S(=O)(=O)O)c12.[Na+] [NSC85561]
- IC50 (HCT-8 cells): 103 µM
- effect on catalytic activity of recombinant CpLDH [1]: significant (P<0.05) inhibitory effect

SMILES: O=c1oc2cc(O)ccc2c2oc3cc(O)ccc3c12 [NSC22842]
- IC50 (HCT-8 cells): 83.5 µM
- effect on catalytic activity of recombinant CpLDH [1]: significant (P<0.05) inhibitory effect

SMILES: CCOC(C)C(C=NNC(N)=S)=NNC(N)=S (stereo not shown) [NSC82116]
- IC50 (HCT-8 cells): 118 µM
- effect on catalytic activity of recombinant CpLDH [1]: significant (P<0.05) inhibitory effect

SMILES: COc1ccc(/C=C/C(=O)Oc2cc(O)cc(O)c2)cc1 [NSC175296]
- IC50 (HCT-8 cells): 156 µM

SMILES: O=C(CC(=O)C(F)(F)F)c1csc2ccccc12 [NSC80396]
- IC50 (HCT-8 cells): 91.9 µM

SMILES: Cc1cc2c(c3oc(C4(C)OC4C4OC4C)cc(=O)c13)C(=O)c1c(O)c(C3CC(C)(N(C)C)C(O)C(C)O3)cc(C3CC(N(C)C)C(O)C(C)O3)c1C2=O (stereo not shown) [NSC70929]
- IC50 (HCT-8 cells): 181 µM
- effect on catalytic activity of recombinant CpLDH [1]: significant (P<0.05) inhibitory effect

SMILES: COc1ccc(CCN(C)CCCC(C#N)(c2ccc(OC)c(OC)c2)C(C)C)cc1OC.Cl (stereo not shown) [NSC657799]
- effect on catalytic activity of recombinant CpLDH [1]: significant (P<0.05) inhibitory effect

SMILES: O=C(O)[C@@H]1[C@H](C(=O)O)[C@]2(Cl)C(Cl)=C(Cl)[C@@]1(Cl)C2(Cl)Cl [NSC22225]
- IC50 (HCT-8 cells): 96.8 µM
- effect on catalytic activity of recombinant CpLDH [1]: significantly (P<0.05) inhibited

SMILES: O=S(=O)(O)c1cc(N=Nc2cc(S(=O)(=O)O)c3cccnc3c2O)ccc1/C=C/c1ccc(N=Nc2cc(S(=O)(=O)O)c3cccnc3c2O)cc1S(=O)(=O)O [NSC638352]
- IC50 (HCT-8 cells): 116 µM
- effect on catalytic activity of recombinant CpLDH [1]: significant (P<0.05) inhibitory effect

SMILES: N#CCCN(CCC#N)Cc1cc(O)c(CN(CCC#N)CCC#N)cc1O [NSC70925]
- IC50 (HCT-8 cells): 142 µM
- effect on catalytic activity of recombinant CpLDH [1]: significant (P<0.05) inhibitory effect

SMILES: O=S(=O)(O)c1cc(N=[N+]([O-])c2cc(S(=O)(=O)O)c3ccccc3c2)cc2ccccc12 [NSC37031]
- IC50 (HCT-8 cells): 333 µM
- effect on catalytic activity of recombinant CpLDH [1]: significantly (P<0.05) inhibited

SMILES: CC1=C(CCC(=O)O)c2cc3nc(cc4[nH]c(cc4C)cc4[nH]c(cc1n2)cc4C)C(C)=C3CCC(=O)O [NSC18298]
- IC50 (HCT-8 cells): 81.9 µM
- effect on catalytic activity of recombinant CpLDH [1]: significant (P<0.05) inhibitory effect

SMILES: Cc1cc2c(C(C)C)c(O)c(O)c(C=O)c2c(O)c1-c1c(C)cc2c(C(C)C)c(O)c(O)c(C=O)c2c1O [NSC56817]
- IC50 (HCT-8 cells; [2]): 64.2 µM
- effect on catalytic activity of recombinant CpLDH [1]: significant (P<0.05) inhibitory effect

SMILES: CC(=O)Nc1ccc(-c2nc3ccccc3s2)cc1 [NSC33006]
- IC50 (HCT-8 cells): 87.3 µM
- effect on catalytic activity of recombinant CpLDH [1]: significant (P<0.05) inhibitory effect

SMILES: O=S(=O)([O-])c1cc(N=Nc2cc(S(=O)(=O)[O-])c3ccccc3c2O)ccc1/C=C/c1ccc(N=Nc2cc(S(=O)(=O)[O-])c3ccccc3c2O)cc1S(=O)(=O)[O-].[Na+].[Na+].[Na+].[Na+] [NSC34931]
- IC50 (HCT-8 cells): 71.1 µM
- effect on catalytic activity of recombinant CpLDH [1]: significant (P<0.05) inhibitory effect

SMILES: O=C1/C(=C/c2ccccc2)CN(C(=O)/C=C/c2ccccc2)C/C1=C\c1ccccc1 [NSC638634]
- IC50 (HCT-8 cells): 157 µM
